Experimental findings from publication PMC3535377 (Amino Acids, 2011) are described below.

For assay [1], the target named is T1, human TG6 (T021; Zedira) (Homo sapiens, UniProt O95932).
T1 sequence (O95932 1-706): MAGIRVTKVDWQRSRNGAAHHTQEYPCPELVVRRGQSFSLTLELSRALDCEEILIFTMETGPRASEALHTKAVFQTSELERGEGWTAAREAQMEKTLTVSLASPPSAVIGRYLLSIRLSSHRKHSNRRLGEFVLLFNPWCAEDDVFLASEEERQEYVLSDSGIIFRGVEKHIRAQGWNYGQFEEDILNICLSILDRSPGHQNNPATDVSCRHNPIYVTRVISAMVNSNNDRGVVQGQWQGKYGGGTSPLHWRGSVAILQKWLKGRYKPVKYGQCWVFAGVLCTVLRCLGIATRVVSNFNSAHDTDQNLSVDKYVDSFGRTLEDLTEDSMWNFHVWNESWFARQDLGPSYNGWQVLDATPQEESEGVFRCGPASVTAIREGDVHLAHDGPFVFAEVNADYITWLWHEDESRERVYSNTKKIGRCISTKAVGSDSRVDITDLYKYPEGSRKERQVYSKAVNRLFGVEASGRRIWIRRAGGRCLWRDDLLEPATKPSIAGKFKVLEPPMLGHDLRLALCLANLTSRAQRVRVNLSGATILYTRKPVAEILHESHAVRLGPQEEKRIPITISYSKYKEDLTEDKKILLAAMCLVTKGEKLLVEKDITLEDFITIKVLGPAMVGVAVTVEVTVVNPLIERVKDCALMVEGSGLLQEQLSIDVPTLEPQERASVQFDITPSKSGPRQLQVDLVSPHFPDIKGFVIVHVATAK
The assay can be described thus: fluorescence isopeptidase. The class given is biochemical. The following applies: 37°C, Ca2+-activated; allosteric.

Assay [2] addresses T1, human TG6 (T021; Zedira). The assay can be described thus: fluorescence isopeptidase. The class given is biochemical.

For the compound `Nc1nc2c(ncn2[C@@H]2O[C@H](COP(=O)(O)OP(=O)(O)OP(O)(O)=S)[C@@H](O)[C@H]2O)c(=O)[nH]1` [GTPγS], the half-maximal inhibition result at human TG6 (T021; Zedira) [1] was “The non-hydrolyzable GTP analogue GTPγS is a more effective inhibitor than GTP”.

For the compound `Nc1nc2c(ncn2[C@@H]2O[C@H](COP(=O)(O)O)[C@@H](O)[C@H]2O)c(=O)[nH]1` [GMP], on human TG6 (T021; Zedira) [1], the half-maximal inhibition entry is reported as “but the affinity for GMP is low”.

Compound `Nc1nc2c(ncn2[C@@H]2O[C@H](COP(=O)(O)OP(=O)(O)OP(=O)(O)O)[C@@H](O)[C@H]2O)c(=O)[nH]1` [GTP] showed a 50% inhibitory concentration (IC50) against human TG6 (T021; Zedira) [2] of 200 µM.

Take `Nc1nc2c(ncn2[C@@H]2O[C@H](COP(=O)(O)OP(=O)(O)O)[C@@H](O)[C@H]2O)c(=O)[nH]1` [GDP]: the half-maximal inhibition result on human TG6 (T021; Zedira) [1] was “Activity of TG6 is inhibited to a similar degree by GTP and GDP”.

`Nc1ncnc2c1ncn2[C@@H]1O[C@H](COP(=O)(O)OP(=O)(O)OP(=O)(O)O)[C@@H](O)[C@H]1O` [ATP]: the IC50 at human TG6 (T021; Zedira) [2] was about 1000 µM.
